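A five-concentration, 48-hour dose response in 96-well plates underlies each endpoint, interpolated linearly between surrounding concentrations. Abbreviation: GI50, concentration required for 50% inhibition of growth. The concentration for full growth arrest is given as TGI.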
How the values were obtained:
Assay in all cases: DTP human tumour cell line panel, 48 h; in the data active = GI50 below about 0.43 µM; inactive = the rest
SF-295 CNS = tested on: SF-295 CNS
SR leukemia = tested on: SR leukemia
T-47D breast = tested on: T-47D breast
SNB-75 CNS = tested on: SNB-75 CNS
PC-3 prostate = tested on: PC-3 prostate
MDA-MB-231 breast = tested on: MDA-MB-231 breast
RPMI-8226 leukemia = tested on: RPMI-8226 leukemia
KM12 colon = tested on: KM12 colon
NCI-H522 lung = tested on: NCI-H522 lung
IGROV1 ovarian = tested on: IGROV1 ovarian
HCT-15 colon = tested on: HCT-15 colon
RXF 393 renal = tested on: RXF 393 renal
OVCAR-3 ovarian = tested on: OVCAR-3 ovarian
HOP-62 NSCLC = tested on: HOP-62 NSCLC
MALME-3M melanoma = tested on: MALME-3M melanoma
HL-60(TB) leukemia = tested on: HL-60(TB) leukemia
UACC-62 melanoma = tested on: UACC-62 melanoma
MDA-MB-435 = tested on: MDA-MB-435
M14 melanoma = tested on: M14 melanoma
CCRF-CEM leukemia = tested on: CCRF-CEM leukemia
NCI-H226 lung = tested on: NCI-H226 lung
SF-268 CNS = tested on: SF-268 CNS
HT29 colon = tested on: HT29 colon
UACC-257 melanoma = tested on: UACC-257 melanoma
HOP-92 NSCLC = tested on: HOP-92 NSCLC
HCT-116 colon = tested on: HCT-116 colon
SK-MEL-5 melanoma = tested on: SK-MEL-5 melanoma
MOLT-4 leukemia = tested on: MOLT-4 leukemia
SN12C renal = tested on: SN12C renal

COc1ccc([C@@H]2[C@@H](O)C(=O)N2c2cc(OC)c(OC)c(OC)c2)cc1
327 nM: TGI (OVCAR-3 ovarian)
76.7 nM: TGI (NCI-H522 lung)
232 nM: TGI (SK-MEL-5 melanoma)
> 100000 nM: TGI (SF-295 CNS) | TGI (SR leukemia) | TGI (T-47D breast) | TGI (SNB-75 CNS) | TGI (PC-3 prostate) | TGI (MDA-MB-231 breast) | TGI (KM12 colon) | TGI (IGROV1 ovarian) | TGI (HCT-15 colon) | TGI (RXF 393 renal) | TGI (HOP-62 NSCLC) | TGI (MALME-3M melanoma) | TGI (UACC-62 melanoma) | TGI (M14 melanoma) | TGI (NCI-H226 lung) | TGI (SF-268 CNS) | TGI (UACC-257 melanoma) | TGI (HOP-92 NSCLC) | TGI (HCT-116 colon) | TGI (MOLT-4 leukemia) | TGI (SN12C renal)
175 nM: TGI (HT29 colon)
83.7 nM: TGI (MDA-MB-435)
inactive: GI50 (T-47D breast) 19000 nM | GI50 (NCI-H226 lung) 525 nM | GI50 (UACC-257 melanoma) 5350 nM | GI50 (HOP-92 NSCLC) > 44600 nM
126 nM: TGI (HL-60(TB) leukemia)
5610 nM: TGI (RPMI-8226 leukemia)
active: GI50 (SF-295 CNS) 37.8 nM | GI50 (SR leukemia) 34.3 nM | GI50 (SNB-75 CNS) 46.5 nM | GI50 (PC-3 prostate) 85.6 nM | GI50 (MDA-MB-231 breast) 55.8 nM | GI50 (RPMI-8226 leukemia) 44.8 nM | GI50 (KM12 colon) 41.3 nM | GI50 (NCI-H522 lung) 24.8 nM | GI50 (IGROV1 ovarian) 57.7 nM | GI50 (HCT-15 colon) 72.7 nM | GI50 (RXF 393 renal) 26 nM | GI50 (OVCAR-3 ovarian) 34.5 nM | GI50 (HOP-62 NSCLC) 75.8 nM | GI50 (MALME-3M melanoma) 105 nM | GI50 (HL-60(TB) leukemia) 30.9 nM | GI50 (UACC-62 melanoma) 41.7 nM | GI50 (MDA-MB-435) 28.1 nM | GI50 (M14 melanoma) 42.3 nM | GI50 (CCRF-CEM leukemia) 41.3 nM | GI50 (SF-268 CNS) 214 nM | GI50 (HT29 colon) 32.9 nM | GI50 (HCT-116 colon) 38.6 nM | GI50 (SK-MEL-5 melanoma) 45.2 nM | GI50 (MOLT-4 leukemia) 101 nM | GI50 (SN12C renal) 124 nM

Source: PubChem BioAssay (NCI)
